“And” between values parts separate entries of the source, which are not always exact repeats. Equal values may be shown once. Toxic doses and inconclusive results are not listed.
System: P388 leukemia ip, CD2F1 mice, survival T/C
Experiment: NCI In Vivo Anticancer Drug Screen. Data for tumor model P388 Leukemia (intraperitoneal) in CD2F1 (CDF1) mice
Details: endpoint: median survival time, higher = longer survival
Method in brief: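 Mice carrying the transplanted tumor received test compound or vehicle. Survival was recorded in each group, and the value is the treated-group measurement divided by that of the vehicle-treated control group.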

[1] = dose: 100.0 mg/kg/injection, schedule: Q04DX003 (ip), vehicle: saline with Tween-80
[2] = dose: 200.0 mg/kg/injection, schedule: Q04DX003 (ip), vehicle: saline with Tween-80
[3] = dose: 60.0 mg/kg/injection, schedule: Q01DX005 (ip), vehicle: saline with Tween-80
[4] = dose: 120.0 mg/kg/injection, schedule: Q01DX005 (ip), vehicle: saline with Tween-80
[5] = dose: 100.0 mg/kg/injection, schedule: Q01DX009 (ip), vehicle: saline with Tween-80
[6] = dose: 200.0 mg/kg/injection, schedule: Q01DX009 (ip), vehicle: saline with Tween-80
[7] = dose: 50.0 mg/kg/injection, schedule: Q01DX009 (ip), vehicle: saline
[8] = dose: 100.0 mg/kg/injection, schedule: Q01DX009 (ip), vehicle: saline
[9] = dose: 200.0 mg/kg/injection, schedule: Q01DX009 (ip), vehicle: saline
[10] = dose: 100.0 mg/kg/injection, schedule: Q01DX009 (ip), vehicle: Klucel (hydroxypropylcellulose) (HPC)
[11] = dose: 200.0 mg/kg/injection, schedule: Q01DX009 (ip), vehicle: Klucel (hydroxypropylcellulose) (HPC)
[12] = dose: 50.0 mg/kg/injection, schedule: Q01DX009 (ip), vehicle: saline with Tween-80
[13] = dose: 50.0 mg/kg/injection, schedule: Q01DX005 (ip), vehicle: saline with Tween-80
[14] = dose: 60.0 mg/kg/injection, schedule: Q01DX005 (ip), vehicle: Klucel (hydroxypropylcellulose) (HPC)
[15] = dose: 120.0 mg/kg/injection, schedule: Q01DX005 (ip), vehicle: Klucel (hydroxypropylcellulose) (HPC)
[16] = dose: 240.0 mg/kg/injection, schedule: Q01DX005 (ip), vehicle: Klucel (hydroxypropylcellulose) (HPC)
[17] = dose: 50.0 mg/kg/injection, schedule: Q01DX005 (ip), vehicle: Klucel (hydroxypropylcellulose) (HPC)
[18] = dose: 100.0 mg/kg/injection, schedule: Q01DX005 (ip), vehicle: Klucel (hydroxypropylcellulose) (HPC)
[19] = dose: 200.0 mg/kg/injection, schedule: Q01DX005 (ip), vehicle: Klucel (hydroxypropylcellulose) (HPC)
[20] = dose: 240.0 mg/kg/injection, schedule: Q01DX005 (ip), vehicle: saline with Tween-80
[21] = dose: 50.0 mg/kg/injection, schedule: Q01DX009 (ip), vehicle: Klucel (hydroxypropylcellulose) (HPC)

Structure (SMILES): CCO/C(=C\C(=O)c1ccccc1)c1ccccc1
- T/C (dose: 50.0 mg/kg/injection, schedule: Q04DX003 (ip), vehicle: saline with Tween-80): 100 % of control
- T/C [1]: 100 % of control
- T/C [2]: 100 % of control

Structure (SMILES): CN(C)CCOC(=O)Nc1ccccc1C(F)(F)F
- T/C [3]: 99 % of control
- T/C [4]: 95 % of control

Structure (SMILES): COc1cccc(CC(=O)NCCc2ccc(OC)c(OC)c2)c1
- T/C [5]: 100 % of control
- T/C [6]: 100 % of control
- T/C (dose: 400.0 mg/kg/injection, schedule: Q01DX009 (ip), vehicle: saline with Tween-80): 104 % of control

Structure (SMILES): COc1ccc(-c2nc(C)nc3c2Cc2c(ccc4ccccc24)O3)cc1
- T/C [7]: 98 % of control
- T/C [8]: 102 % of control
- T/C [9]: 102 % of control

Structure (SMILES): CCCCNC(c1ccc(N(CC)CC)cc1)C(Br)(Br)Br (configuration not stated)
- T/C (dose: 50.0 mg/kg/injection, schedule: Q01DX005 (ip), vehicle: saline): 114 % of control
- T/C (dose: 100.0 mg/kg/injection, schedule: Q01DX005 (ip), vehicle: saline): 101 % of control
- T/C (dose: 200.0 mg/kg/injection, schedule: Q01DX005 (ip), vehicle: saline): 107 % of control

Structure (SMILES): FC(F)(F)c1ccc2c(N/N=C/c3ccc(N(CCCl)CCCl)cc3)ccnc2c1
- T/C (dose: 100.0 mg/kg/injection, schedule: Q04DX003 (ip), vehicle: Klucel (hydroxypropylcellulose) (HPC)): 111 % of control
- T/C (dose: 200.0 mg/kg/injection, schedule: Q04DX003 (ip), vehicle: Klucel (hydroxypropylcellulose) (HPC)): 99 % of control
- T/C (dose: 400.0 mg/kg/injection, schedule: Q04DX003 (ip), vehicle: Klucel (hydroxypropylcellulose) (HPC)): 90 % of control

Structure (SMILES): CCCCOP(O)(=S)OCCCC.[Ti]
- T/C [10]: 96 % of control
- T/C [11]: 96 % of control
- T/C (dose: 400.0 mg/kg/injection, schedule: Q01DX009 (ip), vehicle: Klucel (hydroxypropylcellulose) (HPC)): 95 % of control

Structure (SMILES): COc1ccc(C2CC(=O)C(C(=O)OC3CCCCC3)C2c2ccc(OC)cc2)cc1 (configuration not stated)
- T/C (dose: 12.5 mg/kg/injection, schedule: Q01DX001 (ip), vehicle: Klucel (hydroxypropylcellulose) (HPC)): 92 % of control
- T/C (dose: 25.0 mg/kg/injection, schedule: Q01DX001 (ip), vehicle: Klucel (hydroxypropylcellulose) (HPC)): 93 % of control
- T/C (dose: 50.0 mg/kg/injection, schedule: Q01DX001 (ip), vehicle: Klucel (hydroxypropylcellulose) (HPC)): 86 % of control

Structure (SMILES): NC1=NC2(CS1)CSC(N)=N2
- T/C [12]: 94 % of control
- T/C [5]: 113 % of control
- T/C [6]: 90 % of control

Structure (SMILES): COc1ccc2c(c1)C(NCCCCCCNc1cc(C)[n+](C)c3ccc(OC)cc13)=CC(C)N2C (configuration not stated)
- T/C (dose: 25.0 mg/kg/injection, schedule: Q01DX005 (ip), vehicle: saline with Tween-80): 113 % of control
- T/C [13]: 118 % of control

Structure (SMILES): Nc1ccnc(F)n1
- T/C [14]: 100 % of control
- T/C [15]: 106 % of control
- T/C [16]: 106 % of control

Structure (SMILES): COC(=O)/C=C1\C(=O)OC2(C)CCCCC12 (configuration not stated)
- T/C [12]: 95 % of control
- T/C [5]: 97 % of control
- T/C [6]: 100 % of control

Structure (SMILES): CCn1c(=O)c2c(NC)snc2n(CC)c1=O
- T/C [7]: 97 % of control
- T/C [8]: 95 % of control
- T/C [9]: 98 % of control

Structure (SMILES): O=[N+]([O-])c1cc([N+](=O)[O-])c2ccccc2c1NS(=O)(=O)c1ccc(Cl)c(Cl)c1Cl
- T/C [12]: 103 % of control and 122 % of control
- T/C [5]: 112 % of control
- T/C [6]: 106 % of control

Structure (SMILES): Cc1ccc(C(=O)c2cc3c([nH]c4ccccc43)c(C)c2C(=O)O)cc1
- T/C [17]: 103 % of control
- T/C [18]: 92 % of control
- T/C [19]: 100 % of control

Structure (SMILES): Nc1cc2nc3ccccc3nc2cc1O
- T/C [13]: 90 % of control
- T/C (dose: 100.0 mg/kg/injection, schedule: Q01DX005 (ip), vehicle: saline with Tween-80): 90 % of control
- T/C (dose: 200.0 mg/kg/injection, schedule: Q01DX005 (ip), vehicle: saline with Tween-80): 90 % of control

Structure (SMILES): O=C(CCCCCCCCC(=O)NO)NO
- T/C [3]: 96 % of control
- T/C [4]: 100 % of control
- T/C [20]: 100 % of control

Structure (SMILES): CCCCCCCCCCCCCCCCCCCCC(C(=O)OCC)S(=O)(=O)O (configuration not stated)
- T/C [21]: 116 % of control
- T/C [10]: 111 % of control

Structure (SMILES): COc1cccc(/C=C2/C(=O)N(c3ccccc3)N=C2C)c1OC
- T/C [14]: 101 % of control
- T/C [15]: 100 % of control
- T/C [16]: 110 % of control

Structure (SMILES): CCOC(=O)c1c(C)c(C(=O)OCC)n2cnc(C(=O)OC)cc12
- T/C (dose: 25.0 mg/kg/injection, schedule: Q04DX002 (ip), vehicle: saline with Tween-80): 97 % of control
- T/C (dose: 50.0 mg/kg/injection, schedule: Q04DX002 (ip), vehicle: saline with Tween-80): 106 % of control and 94 % of control
- T/C (dose: 100.0 mg/kg/injection, schedule: Q04DX002 (ip), vehicle: saline with Tween-80): 103 % of control and 122 % of control and 97 % of control
- T/C (dose: 200.0 mg/kg/injection, schedule: Q04DX002 (ip), vehicle: saline with Tween-80): 104 % of control (2×) and 97 % of control
- T/C (dose: 400.0 mg/kg/injection, schedule: Q04DX002 (ip), vehicle: saline with Tween-80): 113 % of control

Structure (SMILES): CCOC(OCC)(c1ccccc1)N(C)C
- T/C [3]: 92 % of control
- T/C [4]: 100 % of control
- T/C [20]: 104 % of control

Structure (SMILES): COc1ccc(/C=C(/C(=O)O)c2ccc(OC)cc2)cc1
- T/C (dose: 100.0 mg/kg/injection, schedule: Q04DX003 (ip), vehicle: other): 100 % of control
- T/C (dose: 200.0 mg/kg/injection, schedule: Q04DX003 (ip), vehicle: other): 95 % of control
- T/C (dose: 400.0 mg/kg/injection, schedule: Q04DX003 (ip), vehicle: other): 100 % of control

Structure (SMILES): Cln1c2c(c3ccccc31)CN(Cc1ccccc1)CC2
- T/C [21]: 105 % of control
- T/C [10]: 106 % of control
- T/C [11]: 97 % of control

Structure (SMILES): CCOC(=O)N1CC23C(C)C(C)=C(C)C2C3(C)N1C(=O)OCC (configuration not stated)
- T/C [17]: 100 % of control
- T/C [18]: 100 % of control
- T/C [19]: 98 % of control

Structure (SMILES): O=[N+]([O-])c1ccc(S(=O)(=O)O)cc1 (tested in a mixture with another compound)
- T/C [1]: 98 % of control
- T/C [2]: 101 % of control
- T/C (dose: 400.0 mg/kg/injection, schedule: Q04DX003 (ip), vehicle: saline with Tween-80): 86 % of control

Structure (SMILES): [O-][n+]1cscc1-c1nc2ccccc2[nH]1
- T/C [17]: 100 % of control
- T/C [18]: 98 % of control
- T/C [19]: 102 % of control

Source: PubChem BioAssay AID330 (DTP/NCI, 2004)
